Assay results from the NIST ThermoML archive (doi:10.1021/acs.jced.5b00197).

Experiment: refractive index (other wavelength) (dimensionless); xn = mol fraction of the nth substance listed
Details: 94.64 kPa, Liquid, Standard Abbe refractometry

CC(=O)O [acetic acid] + Cc1ccccc1
refractive index
Details	Wavelength=404.7 nm	Wavelength=435.8 nm	Wavelength=486.1 nm	Wavelength=546.1 nm	Wavelength=644 nm	Wavelength=706.5 nm
293.15 K, x1 = 0.146	–	–	–	–	1.48087	1.47771
293.15 K, x1 = 0.277	–	–	–	–	1.46744	1.46997
293.15 K, x1 = 0.397	–	–	–	–	1.4556	1.4528
293.15 K, x1 = 0.506	–	–	–	–	1.44297	1.44033
293.15 K, x1 = 0.605	–	–	–	–	1.43097	1.42851
293.15 K, x1 = 0.697	–	–	–	–	1.41867	1.41635
293.15 K, x1 = 0.782	–	–	–	–	1.40657	1.40444
293.15 K, x1 = 0.859	–	–	–	–	1.39469	1.39271
293.15 K, x1 = 0.897	–	–	–	–	1.38534	1.38353
293.15 K, x1 = 0.932	–	–	–	–	1.38047	1.37874
293.15 K, x1 = 0.967	–	–	–	–	1.37542	1.37375
293.15 K, x1 = 1	–	–	–	–	1.37055	1.36896
298.15 K, x1 = 0.146	1.50896	1.50121	1.49239	1.48532	–	–
298.15 K, x1 = 0.277	1.4934	1.48619	1.47801	1.47142	–	–
298.15 K, x1 = 0.397	1.47979	1.47305	1.46545	1.45928	–	–
298.15 K, x1 = 0.506	1.46521	1.45896	1.45191	1.44622	–	–
298.15 K, x1 = 0.605	1.45129	1.44555	1.43909	1.43383	–	–
298.15 K, x1 = 0.697	1.43707	1.43182	1.42596	1.42117	–	–
298.15 K, x1 = 0.782	1.42305	1.41834	1.41304	1.40874	–	–
298.15 K, x1 = 0.859	1.41005	1.40512	1.40043	1.39655	–	–
298.15 K, x1 = 0.897	1.39862	1.39482	1.3906	1.38706	–	–
298.15 K, x1 = 0.932	1.39296	1.38941	1.3854	1.38208	–	–
298.15 K, x1 = 0.967	1.3871	1.38379	1.38002	1.37691	–	–
298.15 K, x1 = 1	1.38126	1.37816	1.37466	1.37174	–	–
